Legend:
[1] = test system: human monocyte-derived immature dendritic cells; type: cell-based; settings: 100,000 viral particles/cell
Text: Ad5 particles with the DC-binding peptides incorporated into the HI loop of the fibre protein were produced essentially as described previously ^12. Complementary oligonucleotides encoding the peptide sequences SHVKLNS [SEQ. ID. NO.:29] (5′ CC GGAAGCCACGTGAAGCTGAACAGCG 3′ [SEQ. ID. NO.:58] and 5′ CC GGCGCTGTTCAGCTTCACGTG GCTT 3′[SEQ. ID. NO.:59]) or APSNSTA [SEQ. ID. NO.:15] (5′ CC GGAGCCCCCAGCAACAGCACCGCCG 3′ [SEQ. ID. NO.:61] and 5′ CC GGCGGCGGTGCTGTTGCTGGG GGCT 3′ [SEQ. ID. NO.:62]) were synthesized (Operon Technologies, Alameda Calif. U.S.A.). The oligo pairs were then kinased, annealed, and ligated into the unique BspE1 site of pDV137 ^12, an expression construct encoding an Ad5 fibre protein with a double point mutant (KO1) which blocks CAR binding and a linker/restriction site in the HI loop, to create pDV178 (SHVKLNS) and pDV179 (APSNSTA). Following sequence confirmation, the plasmids were used to trans-complement the fibre-deleted vector Ad5.GFP.δF^18 by transient transfection into 293 cells as described ^19. Viral particles were purified by freeze/thaw lysis and CsCl gradient centrifugation and dialyzed into 40 mM TRIS-pH 8.1/0.9% NaCl/10% glycerol and stored at −80° C. Virus was quantified by protein assay (BioRad, Hercules Calif., U.S.A.) against BSA standards and using the relation 1 μg viral protein=4×10^9 viral particles.
Retargeted adenoviruses carrying a peptide A or B were used for the transduction experiments described below. Wild type adenovirus type 5 and type 5 adenovirus having a KO1 fibre, all supplied by Dr Dan von Seggern, and as described in Nicklin 2001 Mol Ther 2001 Dec.; 4(6):534-42), were used as controls.
(§1) Day 6 dendritic cells (see Example 1(v) above), or mouse bone marrow derived dendritic cells or mouse Sca1+ve stem cells, see (i) and (ii) above, were plated at 5×10^4 cells per well in a 48 well plate in 500 μl complete medium and allowed to settle for 3 hours at 37° C. Transductions were carried out in complete media, with virus being added at 100,000 viral particles/cell for 24 hours. Cells were harvested by scraping, spun down at 650 g (2000 rpm) for 5 min, resuspended in 300 μl PBS, and kept on ice before analysis. Viral transduction as determined by percentage of GFP positive cells was measured by FACS analysis. To measure percentage viability, 10 μl of 7-amino-actinomycin D (7AAD; Sigma, Poole, Dorset) was added immediately prior to analysis. Viral transduction of macrophages was carried out at 10,000 particles/cell in medium containing 2.5% FCS. For other cell types, cells were seeded overnight at 5×10^4 cells per well in 24-well plates in the appropriate media. Adenovirus was added in OptiMEM at 10,000 viral particles/cell, 1 ml per well in triplicate and incubated for 24 h at 37° C. Cells were then washed twice in PBS, trypsinised, triplicate wells pooled, spun down at 350×g for 5 min and resuspended in 300 μl PBS before analysis by flow cytometry where cell viability was to be measured, 10 μl 7AAD was added just prior to analysis.
Cells were pooled from three separate transduction experiments for the calculation of results.

[2] = test system: human monocyte-derived primary macrophages; assay: Adenoviral transduction of primary macrophages; type: cell-based; settings: 10,000 viral particles/cell in 2.5% serum
Procedure: as §1
10 mls of peripheral blood were diluted 1:1 with HBSS then layered on Lymphoprep (Nycomed), spun at 750 g for 30 min and purified […] were isolated from the interface. Excess Lymphoprep was removed by spinning cells down at 250 g for 10 min and any platelets present were removed by washing in HBSS twice, spinning the cells at 1200 rpm for 10 min each time. Monocytes were then isolated using MACs CD14 microbeads as described in the manufacturer's protocol. The mononuclear cells were plated into a […] flask in 10% FCS, RPMI for 1-2 hours (1 flask per 10 ml blood) before removing the supernatant and adding fresh 10% FCS, RPMI+10 ng/ml MCSF (macrophage colony stimulating factor). Half the medium was replaced with fresh 10% FCS, RPMI+MCSF (10 ng/ml) after 48 hours and the cells were used at day 6, harvesting by scraping the cells from the well.
Viral transduction was carried out at 10,000 particles/cell in medium containing 2.5% FCS. Viral transduction as determined by percentage of GFP positive cells was measured by FACS analysis. Cells were pooled from three separate transduction experiments for the calculation of results.

1HAEo- cells = assay: Adenoviral transduction of 1HAEo- cells; type: cell-based, human; settings: 10,000 particles per cell in OptiMEM
Procedure: as §1, with “For other cell types, cells were seeded overnight at 5×10^4 cells per well in 24-well plates in the appropriate media. Adenovirus was added in OptiMEM at 10,000 viral particles/cell, 1 ml per well in triplicate and incubated for 24 h at 37° C.” left out
(§2) For transduction of these other cell types, cells were seeded overnight at 5×10^4 cells per well in 24 well plates in the appropriate media. […] Where cell viability was to be measured, 10 μl 7-amino-actinomycin D (7AAD; Sigma, Poole, Dorset) was added just prior to analysis. […]

HMEC-1 cells = assay: Adenoviral transduction of HMEC-1 cells; type: cell-based, human; settings: 10,000 particles per cell in OptiMEM
Procedure: as §1, with “For other cell types, cells were seeded overnight at 5×10^4 cells per well in 24-well plates in the appropriate media. Adenovirus was added in OptiMEM at 10,000 viral particles/cell, 1 ml per well in triplicate and incubated for 24 h at 37° C.” left out
as §2

HepG2 cells = assay: Adenoviral transduction of HepG2 cells; type: cell-based, human; settings: 10,000 particles per cell in OptiMEM
Procedure: as §1, with “For other cell types, cells were seeded overnight at 5×10^4 cells per well in 24-well plates in the appropriate media. Adenovirus was added in OptiMEM at 10,000 viral particles/cell, 1 ml per well in triplicate and incubated for 24 h at 37° C.” left out
as §2

[3] = test system: primary mouse dendritic cells; assay: Adenoviral transduction of mouse dendritic cells; type: cell-based; settings: bone marrow derived DCs
Procedure: Mouse dendritic cells were prepared from whole bone marrow flushed from the marrow cavities of the femur and tibia of 5-7 week old A/J mice and cultured in Hepes buffered RPMI+Glutamax (InVitrogen, Paisley, U. K.) supplemented with 10% FCS, penicillin/streptomycin and 20 ng/ml recombinant GM-CSF. Cytokines were added to the same concentration on day 3 and the dendritic cells isolated from the floating cell fraction by MACs CD11c microbeads (Miltenyi Biotec, Bisley, U. K.) on day 6.
as §1, with “To measure percentage viability, 10 μl of 7-amino-actinomycin D (7AAD; Sigma, Poole, Dorset) was added immediately prior to analysis. Viral transduction of macrophages was carried out at 10,000 particles/cell in medium containing 2.5% FCS. For other cell types, cells were seeded overnight at 5×10^4 cells per well in 24-well plates in the appropriate media. Adenovirus was added in OptiMEM at 10,000 viral particles/cell, 1 ml per well in triplicate and incubated for 24 h at 37° C.” left out

[4] = test system: mouse Sca1-positive stem cells; assay: Adenoviral transduction of mouse Sca1+ve stem cells; type: cell-based
Procedure: Mouse bone marrow cells were isolated as above and Sca1+ve cells were isolated using MACs Sca1 microbeads (Miltenyi Biotec, Bisley, U.K.). These cells were plated at 7×10^4 cells/500 μl in RPMI with Glutamax-1 containing 30% FCS and penicillin/streptomycin and the following cytokines murine SCF (50 ng/ml; Preprotech, London, UK), IL-6 (20 ng/ml; Preprotech, London, UK) and Flt3-L (10 ng/ml) (R&D Systems, Oxford, U. K.).
as §1, with “To measure percentage viability, 10 μl of 7-amino-actinomycin D (7AAD; Sigma, Poole, Dorset) was added immediately prior to analysis. Viral transduction of macrophages was carried out at 10,000 particles/cell in medium containing 2.5% FCS. For other cell types, cells were seeded overnight at 5×10^4 cells per well in 24-well plates in the appropriate media. Adenovirus was added in OptiMEM at 10,000 viral particles/cell, 1 ml per well in triplicate and incubated for 24 h at 37° C.” left out

Neuro-2A cells = assay: Adenoviral transduction of Neuro-2A cells; type: cell-based, mouse; settings: 10,000 particles per cell in OptiMEM
Procedure: as §1, with “For other cell types, cells were seeded overnight at 5×10^4 cells per well in 24-well plates in the appropriate media. Adenovirus was added in OptiMEM at 10,000 viral particles/cell, 1 ml per well in triplicate and incubated for 24 h at 37° C.” left out
as §2

[5] = test system: day 6 immature dendritic cells; assay: Maturation of adenovirus-transduced dendritic cells in response to LPS (marker flow cytometry); type: cell-based, human; settings: LPS 50 ng/ml; virus 100,000 particles per cell
Procedure: Day 6 immature dendritic cells were infected with retargeted Ad or Ad5 at 100,000 particles per cell in complete medium for 24 hours, with E. coli 026:B6 lipopolysaccharide (LPS) added following 3 hours incubation at a concentration of 50 ng/ml. As controls, dendritic cells were either incubated in complete medium for 24 hours or matured by the addition of LPS in complete medium for 24 hours, In all samples IL-4 and GM-CSF were present in the complete medium at 25 ng/ml and 100 ng/ml respectively. Cells were then phenotyped by staining as follows: a minimum of 5×10^4 cells in a volume of less than 2 ml medium were added to the recommended amount of antibody and incubated for 20 min on ice. 2 ml of ice-cold PBS was added before centrifugation at 300×g for 5 min at 4° C. The supernatant was flicked off and the pellet resuspended in 300 μl ice cold PBS. Cells from each sample were stained with antibodies to HLA-DR, CD40, CD80, CD83, CD86 and isotype matched control antibodies. Where cell viability was also measured, […] of 7AAD was added immediately prior to analysis. Cells were analysed by flow cytometry using a Epics XL (Beckman Coulter, High Wycombe, UK.) and the EXPO32 analysis software (Beckman Coulter).

In the case of “APSNSTA (Synthetic peptide binding to dendritic cells)”, the “Transduction (% GFP positive cells), donor A” value ([1]; complete medium, 24 hours, donor A) is reported as 65.1%, the “Transduction (% GFP positive cells), donor B” value ([1]; complete medium, 24 hours, donor B) is reported as 78.9% and the “Percentage cell death, donor A” value ([1]; donor A, 7AAD) is reported as “(6.6) %”. For the same substance, the “Percentage cell death, donor B” value ([1]; donor B, 7AAD) was “(11.6) %”, the “Transduction, % cells transduced” value [2] was 34.6% and the “Transduction, % cells transduced” value ([2]; listed as B) was 34.6%. The “Transduction, % cells transduced” value (1HAEo- cells) was 79%, the “Transduction, % cells transduced” value (HMEC-1 cells) was 94.2% and the “Transduction, % cells transduced” value (HepG2 cells) was 79.7%. The Transduction efficiency [3] was 54.1%, the Transduction efficiency [4] was 5.4% and the “Transduction, % GFP-positive cells” value (Neuro-2A cells) was 53.7%. The CD40 positive cells [5] was 9.8%, the CD80 positive cells [5] was 10.7% and the CD83 positive cells [5] was 18.0%. It also gave a CD86 positive cells [5] of 96.7% and an HLA-DR positive cells [5] of 72.9%.

Reference: patent publication US7820624B2, “Peptide ligands” (ICH Productions Limited, priority 2003, dated 2010)
